Results from patent publication US10905774B2, “Nanocage and use thereof” (KOREA INSTITUTE OF SCIENCE AND TECHNOLOGY, priority 2016, dated 2021).
“Also recorded” adds a separate entry of the source.

Columns and labels:
[1] = system: HT29 human colon cancer cells; test: Flow cytometry of nanocage binding to HT29 cancer cells; assay type: cell-based; details: 20, 200, 400 or 600 nM
Protocol: In order to confirm the affinity of cancer cells for nanocages produced using various SIRP proteins prepared in Examples 1-2 to 1-5, respectively in addition to the nanocage prepared in Example 1-1, flow cytometry was performed. Particularly, HT29 human colon cancer cells were seeded into 2×10^5 cells/ml and the wild-type ferritin heavy chain nanocage as a control group, the FH-SIRPα HV nanocage prepared in Example 1-1, the FH-hSIRPα WT nanocage prepared in Example 1, the FH-SIRPγ WT nanocage prepared in Example 1-3 and the FH-SIRPγ V2 nanocage prepared in Example 1-5 were treated at the concentration of 20, 200, 400 or 600 nM, respectively, and the degree of cell binding was measured. Particularly, after treating anti-ferritin heavy chain primary antibody (Abcam, Cambridge, UK, 1:200) and an Alexafluor 488-conjugated donkey anti-rabbit secondary antibody (Jackson ImmunoResearch, Suffolk, UK, 1:400), the cells were sorted according to fluorescence intensity through flow cytometry analysis.

[2] = system: CT26.CL25 mouse colon cancer cells; test: Phagocytosis rate of CT26.CL25 cells by bone marrow-derived macrophages (counting phagocytized cells); assay type: cell-based; details: BMDMs cocultured with CT26.CL25 at 37° C. for 4 hours
Protocol: After the staining, phagocytosis rate of macrophages against cancer cells were determined by counting phagocytized cancer cells by the macrophages.

CT26.CL25 cancer cells [3] = test: In vivo cancer growth inhibition, intratumoral nanocages; set-up: species or system Balb/c wild-type mice; details: CT26.CL25 subcutaneous; intratumoral 28 mg/kg
Protocol: (§1) The antitumor activities of the ferritin heavy chain nanocage prepared in Examples 1-1 to 1-5 and the doxorubicin nanocage complex prepared in Example 3 were examined. Particularly, Balb/c wild type mice were used as the experimental animals, and experiments on the above experimental animals were carried out according to the regulations of the KIST animal ethics committee.
First, in order to measure the in vivo anticancer activity of the various ferritin heavy chain nanocages prepared in Examples 1-1 to 1-5, 1×10^6 cells of CT26.CL25 cancer cells expressing β-galactosidase were subcutaneously injected on the left side of Balb/c wild-type mice in order to induce cancer and then each experimental substance (buffer only, FH-mSIRPα WT, FH-SIRPα HV, FH-SIRPγ WT and FH-SIRPγ V2) was injected intratumorally at dose of 28 mg/kg) after 5 day of tumor inoculation, and the length (L) and the width (W) of the tumor tissues were measured using a caliper at intervals of 3 days (FIG. 7A), and then the volume of tumor tissue was calculated using the following formula: Tumor tissue volume (V [mm^3])=(L [mm])×(W [mm])^2×0.5

Human CD47 = Human CD47 (Homo sapiens, UniProt Q08722); test: Surface plasmon resonance (SPR) analysis of affinities and kinetics of binding to human CD47
Protocol: (§2) The present inventors performed fluorescence microscopy to confirm whether the FH-SIRPα HV nanocage prepared in Example 1 specifically binds to CD47 on the surface of cancer cells. Specifically, CT26 mouse colorectal cancer cell line and HT29 human colorectal cancer cell line were inoculated at a concentration of 3×10^4 cells/ml. Then, after treating 400 nM of FH-SIRPα HV nanocage prepared in Example 1-1 or same amount of wild-type ferritin heavy chain nanocage as control group, anti-ferritin primary antibody (Abcam, Cambridge, UK) and FITC-conjugated anti-mouse rabbit secondary antibody (Jackson ImmunoResearch, Suffolk, UK) were treated and then fluorescence microscopic images were obtained. […] The affinities and kinetics of FH-SIRP α HV nanocage binding human or mouse CD47 were analyzed by surface plasmon resonance (SPR) analysis and the results are shown in Table 1 below.

Mouse CD47 = target: T1, Mouse CD47 (Mus musculus, UniProt Q61735); test: Surface plasmon resonance (SPR) analysis of affinities and kinetics of binding to mouse CD47
T1 sequence (Q61735 19-303): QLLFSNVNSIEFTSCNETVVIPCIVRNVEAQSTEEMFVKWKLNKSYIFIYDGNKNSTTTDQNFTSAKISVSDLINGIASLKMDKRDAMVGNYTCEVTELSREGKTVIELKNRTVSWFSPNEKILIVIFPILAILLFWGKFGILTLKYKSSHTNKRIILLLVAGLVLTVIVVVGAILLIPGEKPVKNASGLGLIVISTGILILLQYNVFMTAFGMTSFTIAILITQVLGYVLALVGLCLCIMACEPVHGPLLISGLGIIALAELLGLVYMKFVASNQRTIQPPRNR
Protocol: as §2

[4] = system: Raji, HT-29, 4T1, CT26 and CT26.CL25 cancer cells co-cultured with BMDMs; test: Phagocytosis of cancer cells by bone marrow-derived macrophages (FACS); assay type: cell-based, human, mouse; details: 400 nM; compared with control group
Description: (§3) Particularly, the present inventors observed the phagocytic action of macrophages and dendritic cells against tumor cells through FACS analysis. First, 3×10^5 cells/ml of bone marrow-derived macrophages (BMDMs) pre-stained with CellTracker Green (Thermo Fisher Scientific, USA) and (a) 1.25×10^6 cells/ml of human Raji Burkitt lymphoma cells, (b) human HT-29 colorectal cancer cells, (c) mouse 4T1 breast cancer cells, (d) mouse CT26 colorectal cancer cells and (e) mouse CT26.CL25 colorectal cancer cells overexpressing β-galactosidase pre-stained with pHrodo Red SE, respectively were seeded in RPMI medium and buffer only (control), the ferritin-SIRPα fusion nanocage (FH-SIRPα HV) of the present invention, the wild-type ferritin heavy chain nanocage (wtFH) and the monomeric SIRPα (mSIRPα) were treated at the concentration of 400 nM, respectively. […] The phagocytosis rate was determined by the following formula. […]

[5] = system: Raji, HT-29, 4T1, CT26 and CT26.CL25 cancer cells co-cultured with BMDCs; test: Phagocytosis of cancer cells by bone marrow-derived dendritic cells (FACS); assay type: cell-based, human, mouse; details: 400 nM; compared with control group
Description: as §3

CT26.CL25 cancer cells [6] = test: In vivo cancer growth inhibition, tail vein injection of doxorubicin nanocage complex and comparators; set-up: species or system Balb/c wild-type mice; details: tail vein 1 mg/kg; for tumor tissues excised after 25 days of cancer cell injection: day 25
Protocol: as §1
In addition, the present inventors investigated the in vivo anticancer activity of the doxorubicin-encapsulated nanocage complex prepared in Example 3 above. Particularly, 1×10^6 cells of CT26.CL25 cancer cells were subcutaneously injected into the above Balb/c wild-type mice to induce cancer. On the 7th day after the injection of cancer cells, 1 mg/kg of each test substance (buffer only, doxorubicin-loaded FH-SIRPα HV nanocage, doxorubicin-loaded ferritin heavy chain nanocage, doxorubicin+recombinant SIRPα, doxorubicin only, FH-SIRPα HV nanocage, ferritin heavy chain nanocage or recombinant SIRPα) was injected first by the tail vein and further injected four times at interval of 3 days at the same dose. The animals were sacrificed for 25 days after the injection of cancer cells, and the tumor tissues were excised and an ex vivo image was taken (FIG. 7D). Further, the volume of the tumor tissue over time before the sacrifice of the experimental animals was recorded from 7 days after the injection of cancer cells at the interval of 3 days by calculating using the following formula after measuring length (L) and width (W) of tumor tissues using a caliper: Tumor tissue volume (V [mm^3])=(L [mm])×(W [mm])^2×0.5

[7] = system: secondary cancer transplanted to other site; test: Anticancer memory effect: secondary tumor rechallenge and survival; assay type: in vivo, mice; details: after 80 days of tumor rechallenge
Description: The present inventors have hypothesized that the effect of FH-SIRPα nanocage according to an embodiment of the present invention is due to the recruiting of immune cells from the results of Experimental Example 3. Thus, the present inventors analyze growth of secondary cancer transplanted to other site and counted survival rate of the experimental animals after excising primary tumor tissues from the experimental animals.

[8] = five injections at interval of 3 days

Human CD47, sequence (Q08722 19-323): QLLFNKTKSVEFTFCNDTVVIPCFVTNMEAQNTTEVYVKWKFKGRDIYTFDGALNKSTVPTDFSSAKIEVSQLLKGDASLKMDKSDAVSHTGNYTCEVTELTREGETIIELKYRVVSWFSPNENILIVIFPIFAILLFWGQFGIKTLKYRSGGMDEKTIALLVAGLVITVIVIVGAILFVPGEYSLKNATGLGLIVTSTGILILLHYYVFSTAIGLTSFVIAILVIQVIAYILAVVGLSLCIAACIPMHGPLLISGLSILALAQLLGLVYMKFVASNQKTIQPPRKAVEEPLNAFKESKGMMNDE

Row | Compound | degree of cell binding [1] | phagocytic activity against cancer cells [2] | antitumor activity (tumor growth) (CT26.CL25 cancer cells [3]) | Kd (Human CD47) | ka (Human CD47) | kd (Human CD47) | Kd (Mouse CD47) | ka (Mouse CD47) | kd (Mouse CD47) | phagocytosis of cancer cells by macrophages (BMDMs) [4] | phagocytosis of cancer cells by dendritic cells (BMDCs) [5] | tumor tissues excised after 25 days of cancer cell injection (CT26.CL25 cancer cells [6]) | anticancer effect (growth of cancer cells) (CT26.CL25 cancer cells [6]; [8]) | volume of the tumor (CT26.CL25 cancer cells [6]; [8]) | survival rate [7]
1 | FH-hSIRPα WT nanocage: Ferritin heavy chain nanocage of fusion protein with human SIRPα wild-type protein (SEQ ID NO: 92) | binds to cancer cells in a concentration-dependent manner | exhibited phagocytic activity against cancer cells | somewhat lowered |  |  |  |  |  |  |  |  |  |  |  | 
2 | mSIRPα: Monomeric (recombinant) SIRPα protein used as comparator |  |  |  | 0.0054 nM | 7e+06 M⁻¹ s⁻¹ | 3.7e-05 s⁻¹ | 6.2 nM | 1.8e+06 M⁻¹ s⁻¹ | 0.011 s⁻¹ | significantly increased | significantly increased | same tumor volume as the control group | not so significant | exceeded 1,000 mm^3 | 50%
3 | COc1cccc2c1C(=O)c1c(O)c3c(c(O)c1C2=O)C[C@@](O)(C(=O)CO)C[C@@H]3O[C@H]1C[C@H](N)[C@H](O)[C@H](C)O1 [doxorubicin] |  |  |  |  |  |  |  |  |  |  |  | limited | insignificant; also recorded: not so significant |  | 50%
4 | wtFH: Wild-type ferritin heavy chain nanocage used as control [reference compound] | did not bind to cancer cells even when the concentration increased |  |  |  |  |  |  |  |  | very low | very low |  |  |  | 
